These results are taken from patent US11110182B2, “Multifunctional RNA nanoparticles and methods for treating cancer and therapeutic resistant cancer” (University of Cincinnati, priority 2016, dated 2021).

For data set [1], the system named is BT474 orthotopic xenograft tumors. The experiment in a line: Anti-tumor therapy in BT474 orthotopic xenograft breast tumor mouse model. The data set is classed as in vivo, athymic nude mice. The conditions noted are these: single agent; for tumor lung metastasis: H&E staining of whole lung. The procedure: FIG. 5A) BT474 orthotopic xenograft mouse models were treated with control pRNA-HER2apt-siScram or pRNA-HER2apt-siMED1 (4 mg/Kg) once a week, in combination with vehicle or tamoxifen (TAM, 0.5 mg/mice/day) 5 days per week. Tumor sizes were measured every three days. FIG. 5B) After three weeks, mice were i.p. injected with D-luciferin, and representative in vivo images of BT474 tumors were recorded using IVIS Lumina imaging system. FIG. 5C) Average weight of the tumors excised at the end of the treatment, and FIG. 5D) the representative photos of tumors. FIG. 5E and FIG. 5F) MED1 expression in the BT474 tumors was examined using IHC staining and FIG. 5G) immunoblotting. FIG. 5H) The expression of Ki-67 in tumor tissues was analyzed using IHC staining, and FIG. 5I) the percentage of Ki-67 positive cells was counted. Scale bar: 100 μm.
FIG. 6A) Whole lung tissues were fixed, embedded, and sectioned for H&E staining, and FIG. 6B) metastasis foci in the whole lung tissues were then counted. Arrow indicates the metastasis foci. Scale bar: 100 μm. FIG. 6C) After digesting tumor tissues with trypsin and 0.1% collagenase, tumor cells were stained for CD44 and CD24, and FIG. 6D) analyzed for CD44^+CD24^−/low stem cell population using flow cytometry. FIG. 6E) Total RNA in the tumor tissues was extracted using TRIZOL reagent, and the expression of TFF-1, FIG. 6F) c-Myc, FIG. 6G) cyclin D1, and FIG. 6H) MMP-9 were determined by real-time PCR.
Migration and metastasis assay. The 8-μm-pore-size polycarbonate membrane, which separates the two chambers of a 6.5-mm Transwell (Costar), was coated with or without 1:8 DMEM-diluted Matrigel (Corning). Transwell assay was performed as previously described.^57 Briefly, BT474 cells were treated with pRNAs alone or together with 4-hydroxy-tamoxifen (4-OHT) for 48 h and starved with serum-free DMEM containing 0.2% BSA overnight. On the next day, cells were collected and 2×10^5 cells were seeded to the upper chamber of Transwell. The lower chamber was filled with 600 μL DMEM medium containing 10% FBS. After incubation at 37° C. for 24 h, cells on the membranes were fixed and stained with 0.1% crystal violet in 20% ethanol solution. Cells at top side of membranes were removed completely, and cells at the bottom side were examined with an Olympus SZX12 microscope and counted. • Mammosphere culture and breast cancer stem cell analyses. BT474 cells were treated with pRNAs for 48 h. Then, cells were suspended in DMEM/F12 medium supplemented with 1×B27 (Thermo Fisher), 20 ng/mL bFGF and 20 ng/mL EGF (R&D), and added into 24-well ultralow attachment plates. After treatment with or without 1 μM 4-OHT for 7 days, mammosphere formation was recorded using an Axiovert S100 TV inverted microscope (Zeiss). Xenograft tumor tissues were cut into small pieces and digested with trypsin and collagenase at 37° C. for 1 h, and tumor cells were collected and rinsed with pre-cold PBS. All cells were stained with FITC-conjugated anti-CD44 antibody and PE-conjugated anti-CD24 antibody (BD Pharmingen) in the dark on ice for 30 min. After resuspension with 0.5 mL PBS buffer, CD44^+/CD24^−/low cell population was analyzed by flow cytometry. • Orthotopic xenograft breast tumor mouse model, in vivo imaging and anti-tumor therapy. Six-week-old female athymic nude mice were purchased from Charles River Laboratories, and all animal procedures were performed under IACUC-approved protocols at the University of Cincinnati. Athymic nude mice were orthotopically injected with 1×10^7 BT474-luc cells mixed with matrigel into the fat pads of the forth pair of mammary glands. When the tumor sizes reached 100-150 mm^3, the mice were randomly divided into four groups (4/group) and intravenously (i.v.) injected with pRNAs (4 mg/Kg) once a week for three weeks. For tamoxifen treatments, 0.5 mg tamoxifen (Sigma) dissolved in sesame oil was intraperitoneally (i.p.) injected into mice 5 days a week for three weeks. […]

A further data set relates to MED1. As to the kind of experiment: MED1 protein level by western blotting in BT474 cells. The data set is classed as cell-based, human. The conditions noted are these: BT474, 48 h. The protocol:
FIG. 3A) BT474 cells were incubated with 10 μg/mL control and pRNA-HER2apt-siMED1 nanoparticles for 48 h, and MED1 mRNA level was determined by real-time PCR. FIG. 3B) BT474 cells were incubated directly with (as indicated by -) or transfected with indicated pRNAs using lipofectamine 2000. At 48 h post treatment, MED1 protein levels were determined by western blotting. FIG. 3C) BT474 cells were treated with 10 μg/mL pRNA nanoparticles for 48 h and assayed for cell viability by MTT assay. FIG. 3D) Cells were treated as above and seeded for migration, and FIG. 3E) invasion transwell assays. Scale bar: 50 μm. FIG. 3F) After pRNA treatment for 48 h, the mRNA levels of ERα target genes TFF-1, FIG. 3G) c-Myc, and FIG. 3H) cyclin D1 in BT474 cells were determined by real-time PCR.
FIG. 7A) Six HER2-targeting RNA aptamers were selected from previous literatures, and their secondary structures were predicted using Srna-fold software. FIG. 7B) Six p2 strands containing the six different HER2 RNA aptamers were synthesized and annealed with the same p1 strand to generate six different pRNA-HER2apt-MED1 siRNA nanoparticles, respectively, followed by examination using 8% native PAGE gel electrophoresis. FIG. 7C) BT474 cells were treated with above pRNA nanoparticles for 48 h, and then MED1 protein level was determined by western blotting. […] FIG. 7D) 1 μg pRNA nanoparticles were incubated with recombinant Dicer enzyme (Genlantis) at 37° C. for 12 h, the product was separated by 8% native PAGE gel.
FIG. 9A) BT474 cells were treated with different concentrations of pRNA nanoparticles as indicated for 48 h. After that, MED1 protein level was determined by western blots, and FIG. 9B) the cell viability was determined by MTT assay.
Cell culture. Human breast cancer luciferase-overexpressing BT474 and MDA-MB-231 cells were maintained in DMEM medium (Hyclone, Thermo Scientific) supplemented with 10% fetal bovine serum (FBS, Sigma) and 1% penicillin/streptomycin (Corning) at 37° C. in a humidified atmosphere with 5% CO2.^53 • Generation of pRNA nanoparticles. The two strands of pRNA were synthesized with the DNA templates, which were amplified with overlapping primers (Sigma) by PCR methods, using a T7 promoter-controlled in vitro RNA transcription system as previously described^33 (Table 1). All the CTP and UTP used for synthesis of the pRNA nanoparticles were 2′-fluoro modified, except the control unmodified pRNA nanoparticles used in the stability assays. Following an overnight transcription at 37° C., RNA strands were purified using RNA clean and concentrator kits (ZYMO research) and examined by 8 M urea denatured 8% PAGE gel. pRNA nanoparticles were assembled by mixing the equal molar amounts of p1 and p2 strands and gradually annealing from 90° C. to 20° C. in 1×RNA annealing buffer containing 50 mM Tris-HCl (pH 7.5), 50 mM NaCl and 1 mM EDTA on a PCR machine. […] The hydrodynamic diameter and Tm value of pRNA nanoparticles were determined using dynamic light scattering and TGGE assay, respectively, as previously described.^54 The AFM imaging of the pRNA nanoparticles was performed at the University of Nebraska Medical Center imaging facility as previously reported.^55 Briefly, the pRNA nanoparticles (5 μL) were deposited on APS modified mica ^56 for a total of 2 min of incubation time. […]

Strand notation (5' to 3'): a small letter for the sugar, then the base; units joined by * are phosphorothioate-linked, units joined directly phosphodiester-linked; [ ] holds rarer units or linkages, { } end groups; capitals alone tell only the bases. r = 2'-OH (RNA); f = 2'-fluoro

With `CC/C(=C(\c1ccccc1)c1ccc(OCCN(C)C)cc1)c1ccccc1` [tamoxifen, reference compound], the tumor lung metastasis entry in data set [1] is given as “multiple tumor lung metastasis foci”. In data set [1] (pRNA 4 mg/Kg i.v. once a week or tamoxifen 0.5 mg i.p. 5 days a week, three weeks), the tumor growth entry is “only weakly inhibited”.

For “B3 aptamer: HER2-targeting RNA aptamer B3 (SEQ ID NO: 9), tested within pRNA-HER2apt-MED1 siRNA nanoparticles (rGrGrGrArGrGrAfCrGrAfUrGfCrGrGfUfCfUrGfCfUrGfUrGfCfUfUrGrAfUrAfUrGfCfCfCfCrArGrAfCrGrAfCfUfCrGfCfCfC; part of pRNA three-way junction nanoparticle with siRNA)”, in the data set with MED1, the “efficiency of MED1 knockdown among six HER2 RNA aptamers in pRNA nanoparticles” value is recorded as “highest efficiency”.

B1: pRNA-HER2apt-siScram: control pRNA nanoparticle with HER2 aptamer and scramble siRNA; strands p1 SEQ ID NO: 1, p2 SEQ ID NO: 2 (nucleic acid)
chain 1: GGAUCACGCUUCAUAUACAAAGGAUCAAUCAUGGCCAAUCUUAUUUCGCCCAUGACCUU
chain 2: GGUCAUGGGCGAAAUAAGAAAGGCCAUGUGUAUGUGGGGGGAGGACGAUGCGGUCUGCUGUGCUUGAUAUGCCCCAGACGACUCGCCCCCCACAUACUUUGUUGAUCCAAUGUAUAUGAAGCGUGAUCCUU
modifications: pRNA-HER2apt-siScram, p1; pRNA-HER2apt-siScram, p2
Regarding B1, in data set [1], the tumor lung metastasis result is “multiple tumor lung metastasis foci”.
